Assay results: ChEMBL document CHEMBL5463723, “Data for DCP probe BIBO3304” (2023); call rule not given here

Legend:
MAO-A = MAO-A (Homo sapiens, UniProt P21397); assay: Agonist activity in the Eurofins Cerep SafetyScreen44 (BI) against MAO-A_ANTAG by Scintillation counting (Cerep_443); set-up: scale not given: the % may be the effect or the level left; conditions: rat; compound concentration 10 uM; target entry is the homologue from another species; read-out: % Ctrl
[1] = molecular target: Somatostatin receptor type 5 (Mus musculus) (UniProt O08858); assay: Activity against SOMATOS/MO in the Eurofins Panlabs screen (BI) by Radioactive Assay; conditions: Compound concentration 10.0 uM
[2] = molecular target: Leukotriene A-4 hydrolase (Cavia porcellus) (UniProt P19602); assay: Inhibitor of LTA4HYD in the Eurofins Panlabs screen (BI) by Radioactive Assay; conditions: Compound concentration 100.0 uM
[3] = molecular target: Beta-1 adrenergic receptor (Homo sapiens) (UniProt P08588); assay: beta 1 Eurofins-Cerep binding assay; set-up: ligand concentration 0.3 nM; conditions: Compound concentration 10.0 uM
[4] = molecular target: Bombesin receptor subtype-3 (Rattus norvegicus) (UniProt Q8K418); assay: Activity against BOMBESIN/R in the Eurofins Panlabs screen (BI) by Radioactive Assay; conditions: Compound concentration 10.0 uM
Sequence of Bombesin receptor subtype-3 (Rattus norvegicus) (Q8K418 whole entry): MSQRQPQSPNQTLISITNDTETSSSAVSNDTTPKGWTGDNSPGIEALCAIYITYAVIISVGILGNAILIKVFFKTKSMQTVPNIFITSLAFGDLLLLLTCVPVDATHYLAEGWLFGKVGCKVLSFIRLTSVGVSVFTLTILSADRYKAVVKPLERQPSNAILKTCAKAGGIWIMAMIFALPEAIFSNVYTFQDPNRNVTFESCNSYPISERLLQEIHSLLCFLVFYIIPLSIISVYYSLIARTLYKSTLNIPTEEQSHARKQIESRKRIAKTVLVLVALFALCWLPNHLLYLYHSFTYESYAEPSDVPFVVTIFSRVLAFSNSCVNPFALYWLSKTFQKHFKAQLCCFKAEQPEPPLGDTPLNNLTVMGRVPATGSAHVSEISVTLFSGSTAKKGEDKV

[5] = molecular target: Kappa-type opioid receptor (Cavia porcellus) (UniProt P41144); assay: Activity against KAPPA/GP in the Eurofins Panlabs screen (BI) by Radioactive Assay; conditions: Compound concentration 10.0 uM
[6] = molecular target: Sodium-dependent dopamine transporter (Homo sapiens) (UniProt Q01959); assay: dopamine transporter Eurofins-Cerep binding assay; conditions: Compound concentration 10.0 uM
[7] = molecular target: Kappa-type opioid receptor (Homo sapiens) (UniProt P41145); assay: kappa (KOP) Eurofins-Cerep binding assay; conditions: Compound concentration 10.0 uM
[8] = molecular target: Muscarinic acetylcholine receptor M1 (Homo sapiens) (UniProt P11229); assay: M1 Eurofins-Cerep binding assay; set-up: ligand concentration 2 nM; conditions: Compound concentration 10.0 uM
Sequence of Muscarinic acetylcholine receptor M1 (Homo sapiens) (P11229 whole entry): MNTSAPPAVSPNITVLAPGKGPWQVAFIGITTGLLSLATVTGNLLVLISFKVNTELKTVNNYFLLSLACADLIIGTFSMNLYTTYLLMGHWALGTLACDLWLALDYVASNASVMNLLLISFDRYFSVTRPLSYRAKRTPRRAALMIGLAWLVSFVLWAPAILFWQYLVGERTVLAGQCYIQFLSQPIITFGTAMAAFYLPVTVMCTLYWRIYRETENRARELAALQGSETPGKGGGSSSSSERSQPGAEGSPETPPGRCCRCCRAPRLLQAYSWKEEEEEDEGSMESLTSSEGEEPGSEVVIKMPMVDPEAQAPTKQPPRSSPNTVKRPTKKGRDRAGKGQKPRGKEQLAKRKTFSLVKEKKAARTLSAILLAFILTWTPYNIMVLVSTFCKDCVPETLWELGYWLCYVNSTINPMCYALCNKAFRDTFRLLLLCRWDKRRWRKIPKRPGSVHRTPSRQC

[9] = molecular target: L-type calcium channel (dihydropyridine site), Cav1.2 alpha-1C (Rattus norvegicus, UniProt P22002); assay: Activity against CA+/DHPSI/RA in the Eurofins Panlabs screen (BI) by Radioactive Assay; conditions: compound concentration 10 uM, read-out: % Ctrl
[10] = molecular target: Endothelin-1 receptor (Homo sapiens) (UniProt P25101); assay: ETA Eurofins-Cerep binding assay; set-up: ligand concentration 0.03 nM; conditions: Compound concentration 10.0 uM
Sequence of Endothelin-1 receptor (Homo sapiens) (P25101 whole entry): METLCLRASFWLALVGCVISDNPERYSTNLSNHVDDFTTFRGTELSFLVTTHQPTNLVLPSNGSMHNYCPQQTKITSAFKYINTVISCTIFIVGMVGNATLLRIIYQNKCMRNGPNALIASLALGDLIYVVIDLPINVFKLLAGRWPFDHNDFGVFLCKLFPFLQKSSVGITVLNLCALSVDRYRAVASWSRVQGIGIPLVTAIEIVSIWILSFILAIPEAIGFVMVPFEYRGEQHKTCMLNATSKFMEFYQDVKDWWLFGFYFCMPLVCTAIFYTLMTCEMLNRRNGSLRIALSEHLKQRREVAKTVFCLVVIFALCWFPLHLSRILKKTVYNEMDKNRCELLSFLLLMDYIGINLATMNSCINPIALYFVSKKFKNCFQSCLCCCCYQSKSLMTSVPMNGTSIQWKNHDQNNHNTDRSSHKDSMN

[11] = molecular target: Muscarinic acetylcholine receptor M3 (Homo sapiens) (UniProt P20309); assay: M3 Eurofins-Cerep binding assay; set-up: ligand concentration 0.2 nM; conditions: Compound concentration 10.0 uM
[12] = molecular target: B2 bradykinin receptor (Cavia porcellus) (UniProt O70526); assay: Activity against B2/GP in the Eurofins Panlabs screen (BI) by Radioactive Assay; conditions: Compound concentration 10.0 uM
Sequence of B2 bradykinin receptor (Cavia porcellus) (O70526 whole entry): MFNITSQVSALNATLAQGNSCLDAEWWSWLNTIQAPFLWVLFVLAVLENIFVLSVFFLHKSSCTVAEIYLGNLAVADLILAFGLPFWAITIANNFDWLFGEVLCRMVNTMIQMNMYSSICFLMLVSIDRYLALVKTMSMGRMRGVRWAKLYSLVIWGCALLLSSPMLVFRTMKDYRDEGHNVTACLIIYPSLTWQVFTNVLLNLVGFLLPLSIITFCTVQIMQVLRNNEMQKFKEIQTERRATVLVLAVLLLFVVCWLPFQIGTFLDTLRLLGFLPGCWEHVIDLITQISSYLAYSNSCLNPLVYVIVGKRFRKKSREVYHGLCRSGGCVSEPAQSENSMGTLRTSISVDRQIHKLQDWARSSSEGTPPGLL

[13] = molecular target: 5-hydroxytryptamine receptor 1B (Homo sapiens) (UniProt P28222); assay: 5-HT1B Eurofins-Cerep binding assay; set-up: ligand concentration 1 nM; conditions: Compound concentration 10.0 uM
[14] = molecular target: Androgen receptor (Rattus norvegicus) (UniProt P15207); assay: Activity against TESTOST/R in the Eurofins Panlabs screen (BI) by Radioactive Assay; conditions: Compound concentration 10.0 uM
[15] = molecular target: Transmembrane protein 97 (Cavia porcellus) (UniProt H0V073); assay: Activity against SIGMA2/GP in the Eurofins Panlabs screen (BI) by Radioactive Assay; conditions: Compound concentration 10.0 uM
[16] = molecular target: Insulin receptor (Rattus norvegicus) (UniProt P15127); assay: Activity against INSULIN/R in the Eurofins Panlabs screen (BI) by Radioactive Assay; conditions: Compound concentration 10.0 uM
[17] = molecular target: 5-hydroxytryptamine receptor 3A (Homo sapiens) (UniProt P46098); assay: 5-HT3 Eurofins-Cerep binding assay; set-up: ligand concentration 0.5 nM; conditions: Compound concentration 10.0 uM
[18] = molecular target: Cholecystokinin receptor type A (Rattus norvegicus) (UniProt P30551); assay: Activity against CCKA/R in the Eurofins Panlabs screen (BI) by Radioactive Assay; conditions: Compound concentration 10.0 uM
[19] = molecular target: Cholecystokinin receptor type A (Homo sapiens) (UniProt P32238); assay: CCK1 (CCKA) Eurofins-Cerep binding assay; set-up: ligand concentration 0.08 nM; conditions: Compound concentration 10.0 uM
Sequence of Cholecystokinin receptor type A (Homo sapiens) (P32238 whole entry): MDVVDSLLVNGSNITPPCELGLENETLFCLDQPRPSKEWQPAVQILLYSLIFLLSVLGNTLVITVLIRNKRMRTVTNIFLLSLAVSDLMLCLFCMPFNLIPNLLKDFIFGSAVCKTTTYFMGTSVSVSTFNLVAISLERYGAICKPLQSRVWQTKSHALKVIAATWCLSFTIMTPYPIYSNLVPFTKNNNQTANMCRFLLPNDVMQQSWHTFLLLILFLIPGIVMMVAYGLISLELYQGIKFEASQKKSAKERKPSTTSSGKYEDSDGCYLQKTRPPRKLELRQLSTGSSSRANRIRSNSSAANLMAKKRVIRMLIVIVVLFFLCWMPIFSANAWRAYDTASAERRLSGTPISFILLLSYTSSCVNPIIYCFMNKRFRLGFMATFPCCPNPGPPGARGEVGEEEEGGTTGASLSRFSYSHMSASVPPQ

[20] = molecular target: Glutamate NMDA receptor (Rattus norvegicus) (UniProt P35439+Q00959+Q00960+Q00961+Q62645+Q8VHN2+Q9R1M7); assay: Agonist activity in the Eurofins Panlabs screen (BI) against NMDAAGSI/R by Radioactive Assay; format: protein-complex assay; conditions: Compound concentration 10.0 uM
[21] = molecular target: D(2) dopamine receptor (Homo sapiens) (UniProt P14416); assay: Activity against D2HSPIP in the Eurofins Panlabs screen (BI); conditions: Compound concentration 10.0 uM
Sequence of D(2) dopamine receptor (Homo sapiens) (P14416 whole entry): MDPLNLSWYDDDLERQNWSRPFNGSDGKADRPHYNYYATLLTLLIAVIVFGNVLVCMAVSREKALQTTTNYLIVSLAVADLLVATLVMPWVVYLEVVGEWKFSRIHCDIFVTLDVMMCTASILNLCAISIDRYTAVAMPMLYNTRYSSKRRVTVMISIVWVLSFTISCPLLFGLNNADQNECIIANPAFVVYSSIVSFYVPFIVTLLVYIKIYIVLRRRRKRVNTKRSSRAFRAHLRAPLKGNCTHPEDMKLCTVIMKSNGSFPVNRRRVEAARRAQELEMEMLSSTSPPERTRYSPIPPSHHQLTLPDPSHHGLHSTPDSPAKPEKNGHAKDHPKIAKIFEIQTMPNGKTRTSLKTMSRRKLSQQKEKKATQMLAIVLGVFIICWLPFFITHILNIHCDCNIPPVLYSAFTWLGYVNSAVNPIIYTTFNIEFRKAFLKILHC

[22] = molecular target: Voltage-dependent N-type calcium channel subunit alpha-1B (Rattus norvegicus) (UniProt Q02294); assay: Activity against CA+/N/RA in the Eurofins Panlabs screen (BI) by Radioactive Assay; conditions: Compound concentration 10.0 uM
[23] = molecular target: Tyrosine-protein kinase Lck (Homo sapiens) (UniProt P06239); assay: Inhibitor of P56TYRKINLCK in the Eurofins Panlabs screen (BI) by FI - fluorescence intensity; conditions: Compound concentration 10.0 uM
Sequence of Tyrosine-protein kinase Lck (Homo sapiens) (P06239 2-509 limits assumed): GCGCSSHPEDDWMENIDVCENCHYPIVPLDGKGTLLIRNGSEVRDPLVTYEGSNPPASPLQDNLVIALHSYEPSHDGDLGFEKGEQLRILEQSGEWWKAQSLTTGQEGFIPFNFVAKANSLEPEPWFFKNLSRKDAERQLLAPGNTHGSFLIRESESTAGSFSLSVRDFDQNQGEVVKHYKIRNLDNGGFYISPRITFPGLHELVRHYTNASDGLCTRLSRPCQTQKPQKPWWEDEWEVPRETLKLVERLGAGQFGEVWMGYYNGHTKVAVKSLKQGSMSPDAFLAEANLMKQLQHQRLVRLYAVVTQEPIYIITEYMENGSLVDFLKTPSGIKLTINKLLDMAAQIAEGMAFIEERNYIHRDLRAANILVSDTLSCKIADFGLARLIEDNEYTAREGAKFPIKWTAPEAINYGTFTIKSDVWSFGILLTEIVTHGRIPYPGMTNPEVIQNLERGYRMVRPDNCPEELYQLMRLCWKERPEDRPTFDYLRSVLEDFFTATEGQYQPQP

[24] = molecular target: Thyrotropin-releasing hormone receptor (Rattus norvegicus) (UniProt Q01717); assay: Activity against TRH/R in the Eurofins Panlabs screen (BI) by Radioactive Assay; conditions: Compound concentration 10.0 uM
Sequence of Thyrotropin-releasing hormone receptor (Rattus norvegicus) (Q01717 whole entry): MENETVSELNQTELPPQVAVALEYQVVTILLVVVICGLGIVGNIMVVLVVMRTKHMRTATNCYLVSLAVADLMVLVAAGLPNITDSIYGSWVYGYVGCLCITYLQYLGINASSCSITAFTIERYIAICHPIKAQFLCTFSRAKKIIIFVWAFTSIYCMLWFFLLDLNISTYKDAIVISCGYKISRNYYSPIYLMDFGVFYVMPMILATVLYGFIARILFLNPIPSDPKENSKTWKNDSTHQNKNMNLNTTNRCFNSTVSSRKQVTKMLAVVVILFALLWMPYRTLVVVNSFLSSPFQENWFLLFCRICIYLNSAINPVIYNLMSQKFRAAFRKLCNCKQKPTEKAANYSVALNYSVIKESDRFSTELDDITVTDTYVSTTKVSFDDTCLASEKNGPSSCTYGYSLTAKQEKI

[25] = molecular target: Serotonin 2 (5-HT2) receptor (Rattus norvegicus) (UniProt P30994+P08909+P14842); assay: Activity against 5HT2/R in the Eurofins Panlabs screen (BI) by Radioactive Assay; format: protein assay; conditions: Compound concentration 10.0 uM
[26] = molecular target: T1, Neuropeptide Y receptor type 2 (Homo sapiens, UniProt P49146); assay: Radioligand binding assay (NPY2R, SMS-KAN cells); format: cell-based
T1 sequence (P49146 whole entry): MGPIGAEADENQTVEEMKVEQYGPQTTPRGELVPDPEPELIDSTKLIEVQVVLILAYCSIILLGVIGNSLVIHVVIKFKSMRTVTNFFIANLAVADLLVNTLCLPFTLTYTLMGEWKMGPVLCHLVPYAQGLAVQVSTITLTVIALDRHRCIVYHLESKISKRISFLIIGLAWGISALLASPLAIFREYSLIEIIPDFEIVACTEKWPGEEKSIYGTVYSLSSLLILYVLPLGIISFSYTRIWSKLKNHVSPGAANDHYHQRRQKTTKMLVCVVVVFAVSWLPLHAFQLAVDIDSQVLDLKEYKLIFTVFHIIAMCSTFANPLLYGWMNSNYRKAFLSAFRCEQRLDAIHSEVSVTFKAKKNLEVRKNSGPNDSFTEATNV

[27] = molecular target: Acetyl-coenzyme A synthetase, cytoplasmic (Homo sapiens) (UniProt Q9NR19); assay: Inhibitor of ACOASYN in the Eurofins Panlabs screen (BI) by Radioactive Assay; conditions: Compound concentration 100.0 uM
[28] = molecular target: D(1A) dopamine receptor (Rattus norvegicus) (UniProt P18901); assay: Activity against D1/R in the Eurofins Panlabs screen (BI) by Radioactive Assay; conditions: Compound concentration 10.0 uM
[29] = molecular target: Tyrosine-protein kinase Lck (Homo sapiens) (UniProt P06239); assay: Inhibitor of LCK_CE in the Eurofins Cerep SafetyScreen44 (BI) by lanthanide chelation excitation (Cerep_2906); conditions: Compound concentration 10.0 uM
[30] = molecular target: Neuronal acetylcholine receptor subunit beta-2 (Rattus norvegicus) (UniProt P12390); assay: Activity against NACH/CENT/R in the Eurofins Panlabs screen (BI) by Radioactive Assay; conditions: Compound concentration 10.0 uM
Sequence of Neuronal acetylcholine receptor subunit beta-2 (Rattus norvegicus) (P12390 whole entry): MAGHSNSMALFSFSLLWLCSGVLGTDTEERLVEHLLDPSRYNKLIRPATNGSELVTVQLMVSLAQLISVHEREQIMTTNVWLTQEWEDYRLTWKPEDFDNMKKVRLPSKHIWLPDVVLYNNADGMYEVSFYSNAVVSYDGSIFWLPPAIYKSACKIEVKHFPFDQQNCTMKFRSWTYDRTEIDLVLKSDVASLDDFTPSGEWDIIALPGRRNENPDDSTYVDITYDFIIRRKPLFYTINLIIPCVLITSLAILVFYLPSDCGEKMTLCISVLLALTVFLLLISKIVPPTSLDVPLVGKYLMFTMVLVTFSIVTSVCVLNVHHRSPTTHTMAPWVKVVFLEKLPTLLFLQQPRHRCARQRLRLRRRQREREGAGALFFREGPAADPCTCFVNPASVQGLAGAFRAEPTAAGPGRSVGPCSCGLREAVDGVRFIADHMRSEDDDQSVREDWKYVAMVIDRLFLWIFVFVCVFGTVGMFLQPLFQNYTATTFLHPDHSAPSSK

[31] = molecular target: Muscarinic acetylcholine receptor (Rattus norvegicus) (UniProt P08482+P08483+P08485+P08911+P10980); assay: Activity against MUSCARIN/NS in the Eurofins Panlabs screen (BI) by Radioactive Assay; format: protein assay; conditions: Compound concentration 10.0 uM
[32] = molecular target: Mu-type opioid receptor (Cavia porcellus) (UniProt P97266); assay: Activity against MU/GP in the Eurofins Panlabs screen (BI) by Radioactive Assay; conditions: Compound concentration 10.0 uM
[33] = molecular target: Potassium voltage-gated channel subfamily A member 1 (Rattus norvegicus) (UniProt P10499); assay: Activity against K+/KA/R in the Eurofins Panlabs screen (BI) by Radioactive Assay; conditions: Compound concentration 10.0 uM
Sequence of Potassium voltage-gated channel subfamily A member 1 (Rattus norvegicus) (P10499 whole entry): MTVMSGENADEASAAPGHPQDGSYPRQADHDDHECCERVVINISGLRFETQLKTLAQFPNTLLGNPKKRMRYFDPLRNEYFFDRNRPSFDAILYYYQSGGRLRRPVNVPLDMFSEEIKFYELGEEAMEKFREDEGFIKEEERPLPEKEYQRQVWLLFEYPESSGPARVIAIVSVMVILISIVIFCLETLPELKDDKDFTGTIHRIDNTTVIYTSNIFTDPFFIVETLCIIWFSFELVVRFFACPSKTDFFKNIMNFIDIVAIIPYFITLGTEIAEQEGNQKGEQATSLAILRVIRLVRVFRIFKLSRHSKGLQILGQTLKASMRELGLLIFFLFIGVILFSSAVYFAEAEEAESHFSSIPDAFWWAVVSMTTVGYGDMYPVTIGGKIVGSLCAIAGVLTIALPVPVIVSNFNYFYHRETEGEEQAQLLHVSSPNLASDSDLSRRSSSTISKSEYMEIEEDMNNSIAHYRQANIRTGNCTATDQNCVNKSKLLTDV

[34] = molecular target: Substance-P receptor (Cavia porcellus) (UniProt P30547); assay: Activity against NK1/GP in the Eurofins Panlabs screen (BI) by Radioactive Assay; conditions: Compound concentration 10.0 uM

Sequence of MAO-A (P21397 whole entry): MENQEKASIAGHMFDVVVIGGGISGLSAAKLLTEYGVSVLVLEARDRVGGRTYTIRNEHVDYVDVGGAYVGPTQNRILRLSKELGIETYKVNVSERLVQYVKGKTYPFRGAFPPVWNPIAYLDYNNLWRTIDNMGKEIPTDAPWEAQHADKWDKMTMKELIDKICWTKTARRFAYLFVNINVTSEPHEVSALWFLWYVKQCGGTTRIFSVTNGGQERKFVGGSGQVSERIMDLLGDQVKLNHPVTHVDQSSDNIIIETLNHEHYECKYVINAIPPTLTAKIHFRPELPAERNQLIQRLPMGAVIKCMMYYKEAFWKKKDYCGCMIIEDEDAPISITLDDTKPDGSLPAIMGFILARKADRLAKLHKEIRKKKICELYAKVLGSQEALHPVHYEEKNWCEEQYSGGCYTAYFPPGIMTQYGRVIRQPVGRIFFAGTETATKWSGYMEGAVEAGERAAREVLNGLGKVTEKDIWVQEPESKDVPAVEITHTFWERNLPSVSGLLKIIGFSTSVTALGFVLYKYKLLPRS

residual activity [1]: 103%
residual activity [2]: 102%
residual activity [3]: 106%
residual activity [4]: 100%
residual activity [5]: 105%
residual activity [6]: 79%
residual activity [7]: 30%
residual activity [8]: 89%
residual activity [10]: 112%
residual activity [11]: 87%
residual activity [12]: 115%
residual activity [13]: 60%
residual activity [14]: 88%
residual activity [15]: 109%
residual activity [16]: 98%
residual activity [17]: 91%
residual activity [18]: 87%
residual activity [19]: 66%
residual activity [20]: 89%
residual activity [21]: 97%
residual activity [22]: 110%
residual activity [23]: 97%
residual activity [24]: 84%
residual activity [25]: 92%
IC50 [26]: > 10 µM (not active)
residual activity [27]: 100%
residual activity [28]: 103%
residual activity [30]: 98%
residual activity [31]: 87%
residual activity [32]: 104%
residual activity [33]: 99%
residual activity [34]: 106%
Structure (SMILES): N=C(N)NCCC[C@@H](NC(=O)C(c1ccccc1)c1ccccc1)C(=O)NCc1ccc(CNC(N)=O)cc1
activity at 10 µM (MAO-A): 97% (not active)
activity at 10 µM [9]: 82% (not active)
residual activity [29]: 86%
